According to patent publication US20250242033A1, “Novel Stannic Protoporfin Compositions, Methods of Making, and Uses Thereof” (Renibus Therapeutics, Inc., priority 2023, published 2025):

System: HO-1
Assay: HO-1/GAPDH mRNA in cortex after IV FeS + SnPP (biomarker for oxidative stress)
Format: in vivo
Conditions: combined with iron sucrose
Experimental: The SnPP composition of Example 1 and the Comparative Example (1 micromole) were combined with iron sucrose (1 mg) to assess biomarkers for oxidative stress.

C=CC1=C(C)C2=Cc3c(C=C)c(C)c4[n]3[Sn]([Cl])([Cl])[n]3c(c(C)c(CCC(=O)O)c3=CC3=NC(=C4)C(C)=C3CCC(=O)O)=CC1=N2 [Example 1, Stannic protoporfin] was tested, and the “HO-1 induction relative to the comparative example, in words” value was “lower HO-1 induction”.
